Source: article PMC5610242, “Stapled peptide inhibitors of RAB25 target context-specific phenotypes in cancer” (Nature Communications, 2017)
Bridge positions count the residues as written; N and C are the ends. Square brackets hold non-standard residues; d marks the D form. Peptide text beside a SMILES is read from it. S5 = C=CCCC[C@](C)(N)C(=O)O; Nle = CCCC[C@H](N)C(=O)O; βAla = NCCC(=O)O

System: all cell lines tested (HEY, MCF7, MDA-MB231)
Experiment: Toxicity seen in wound healing studies
Format: cell-based
Conditions: 10 μM
Procedure: Cells were seeded at a density of 5000–7000 cells for HEY and MDA-MB231 or 15,000 cells for MCF7 on each side of an Ibidi culture insert (Ibidi, Munich, Germany), with a 500 μm separation between each side of the well, and allowed to grow for 24 h to attain a compact monolayer. Cells were pretreated with, or without, RFP peptides (10 μM) or DMSO control for 12 h before removal of the insert, and following removal of the insert cells were incubated in RFP-containing media or DMSO control for the duration of wound closure. Cells were photographed using a Life Technologies EVOS XL Core imaging system 4× or a Nikon DS camera connected to a Nikon Eclipse Ti microscope objective at insert removal (0 h) and when wound closure was complete under control conditions. Experiments were performed in duplicate and a minimum of four fields of the injury were photographed and used for quantification.

CCCC[C@H](NC(=O)[C@@H](NC(=O)[C@H](CCCNC(=N)N)NC(=O)[C@@H](NC(=O)[C@@H](NC(=O)[C@]1(C)CCCC=CCCC[C@](C)(NC(=O)[C@H](CC(N)=O)NC(=O)[C@H](CCC(N)=O)NC(=O)[C@H](CC(C)C)NC(=O)[C@H](CCCNC(=N)N)NC(=O)[C@H](Cc2ccccc2)NC(=O)[C@H](CC(N)=O)NC(=O)[C@@H](NC(=O)[C@H](CCCNC(=N)N)NC(=O)CCNC(=O)[C@@H](N)Cc2c[nH]c3ccccc23)[C@@H](C)CC)C(=O)N[C@@H]([C@@H](C)CC)C(=O)N[C@@H](CC(=O)O)C(=O)N[C@@H](CCCNC(=N)N)C(=O)N1)[C@@H](C)CC)C(C)C)[C@@H](C)CC)C(=O)N[C@@H](CCC(=O)O)C(=O)N[C@H](C(=O)N[C@@H](CC(N)=O)C(=O)N1CCC[C@H]1C(=O)N[C@@H](CO)C(=O)N[C@H](C(=O)N[C@@H](CC(C)C)C(=O)N[C@@H](CCCNC(=N)N)C(=O)N[C@H](C(=O)N[C@@H](CCCCN)C(N)=O)C(C)C)[C@@H](C)CC)[C@@H](C)O [RFP26] (H-W[βAla]RINFRLQN[S5]IDR[S5]IVRI[Nle]ETNPSILRVK-NH2; staple 11-15)
toxicity in wound healing studies: considerable toxicity
